Assay results taken from ChEMBL document CHEMBL6074657, “Discovery and Synthesis of Heterobifunctional Degraders of Rearranged during Transfection (RET) Kinase” (J Med Chem, 2024).

Columns and labels:
[1] = in vitro; conditions: mouse, liver microsomes
[2] = in vitro; conditions: human, liver microsomes
[3] = in vitro; conditions: rat, liver microsomes
[4] = in vitro; conditions: human, liver microsomes; remark: listed apart in the source
[5] = in vitro; conditions: mouse, liver microsomes; remark: listed apart in the source
[6] = Intrinsic clearance in mouse; format: ADME, organism-based; conditions: in vivo
[7] = Cmax in athymic nude mouse at 25 mg/kg, sc measured after 24 hrs by LC/MS analysis; format: ADME, organism-based; conditions: in vivo
[8] = Metabolic stability in rat liver microsomes assessed as half-life; format: ADME, Microsome
[9] = Tmax in athymic nude mouse at 8 to 75 mg/kg, sc by LC/MS analysis; format: ADME, organism-based; conditions: in vivo, dose 8-75 mg/kg
[10] = Bioavailability in mouse at 50 mg/kg, sc; format: ADME, organism-based; conditions: in vivo
[11] = Cmax in athymic nude mouse at 8 mg/kg, sc measured after 24 hrs by LC/MS analysis; format: ADME, organism-based; conditions: in vivo
[12] = Cmax in athymic nude mouse at 75 mg/kg, sc measured after 24 hrs by LC/MS analysis; format: ADME, organism-based; conditions: in vivo

Structure (SMILES) | remaining at 10 min [1] [%] | remaining at 10 min [2] [%] | remaining at 10 min [3] [%] | half-life [4] [h] | half-life [5] [h] | CLint scaled [6] [mL/min/kg] | Cmax [7] [µM] | half-life [8] [h] | Tmax [9] [h] | bioavailability [10] [%] | Cmax [11] [µM] | Cmax [12] [µM]
COc1ccc(CN2[C@@H]3C[C@H]2CN(c2ccc(-c4cc(OCC(C)(C)O)cn5ncc(C#N)c45)cn2)C3)cn1 | 63 | 58 | 89 | – | – | – | – | – | – | – | – | –
CCOc1cc(-c2ccc(N3CCC(CN4CCC(C(=O)N5CC(N6CCC(c7ccc8c(c7)C(=O)N(C7CCC(=O)NC7=O)C8)CC6)C5)CC4)(NC(=O)c4cc(F)ccc4F)CC3)nc2)c2c(C#N)cnn2c1 (stereo not given) | – | – | – | > 2 | 1.57 | – | – | – | – | – | – | –
CCOc1cc(-c2ccc(N3CCC(CN4CCN(C(=O)CCN5CCC(c6ccc7c(N8CCC(=O)NC8=O)nn(C)c7c6)CC5)CC4)(NC(=O)c4cc(F)ccc4F)CC3)nc2)c2c(C#N)cnn2c1 | 88 | 81 | 75 | 0.7 | 1.73 | – | – | – | – | – | – | –
CCOc1cc(-c2ccc(N3CCC(CN4CCN(C(=O)CCN5CCC(c6ccc7c(c6)C(=O)N([C@@H]6CCC(=O)NC6=O)C7)CC5)CC4)(NC(=O)c4cc(F)ccc4F)CC3)nc2)c2c(C#N)cnn2c1 | 100 | 98 | 100 | 1.28 | > 2 | – | – | – | – | – | – | –
CCOc1cc(-c2ccc(N3CCC(CN4CCN(C(=O)CCN5CCC(c6ccc7c(c6)C(=O)N([C@H]6CCC(=O)NC6=O)C7)CC5)CC4)(NC(=O)c4cc(F)ccc4F)CC3)nc2)c2c(C#N)cnn2c1 | 80 | 100 | 100 | > 2 | > 2 | – | – | – | – | – | – | –
CCOc1cc(-c2ccc(N3CCC(CN4CCN(C(=O)CCN5CCC(c6ccc7c(c6)CN(C6CCC(=O)NC6=O)C7=O)CC5)CC4)(NC(=O)c4cc(F)ccc4F)CC3)nc2)c2c(C#N)cnn2c1 (stereo not given) | 82 | 85 | 94 | 1.02 | 0.95 | – | – | – | – | – | – | –
CCOc1cc(-c2ccc(N3CCC(CN4CCN(C(=O)CCCCCCN5CCC(c6ccc7c(c6)CN(C6CCC(=O)NC6=O)C7=O)CC5)CC4)(NC(=O)c4cc(F)ccc4F)CC3)nc2)c2c(C#N)cnn2c1 (stereo not given) | 80 | 78 | 88 | 0.583 | 1.55 | – | – | – | – | – | – | –
CCOc1cc(-c2ccc(N3CCC(CN4CCN(C(=O)CCCCN5CCC(c6ccc7c(c6)CN(C6CCC(=O)NC6=O)C7=O)CC5)CC4)(NC(=O)c4cc(F)ccc4F)CC3)nc2)c2c(C#N)cnn2c1 (stereo not given) | 85 | 88 | 100 | 1.4 | 1.42 | – | – | – | – | – | – | –
CCOc1cc(-c2ccc(N3CCC(COCC(=O)N4CCC(CN5CCN(c6ccc7c(c6)CN(C6CCC(=O)NC6=O)C7=O)CC5)CC4)(NC(=O)c4cc(F)ccc4F)CC3)nc2)c2c(C#N)cnn2c1 (stereo not given) | 68 | 10 | 81 | – | – | – | – | – | – | – | – | –
CCOc1cc(-c2ccc(N3CCC(CN4CCN(C(=O)CCCCCCN5CCN(c6ccc7c(c6)CN(C6CCC(=O)NC6=O)C7=O)CC5)CC4)(NC(=O)c4cc(F)ccc4F)CC3)nc2)c2c(C#N)cnn2c1 (stereo not given) | 70 | 40 | 84 | 0.133 | 0.467 | 32 | – | – | – | – | – | –
CCOc1cc(-c2ccc(N3CCC(CN4CCN(C(=O)CCN5CCC(c6ccc7c(c6)C(=O)N(C6CCC(=O)NC6=O)C7)CC5)CC4)(NC(=O)c4cc(F)ccc4F)CC3)nc2)c2c(C#N)cnn2c1 (stereo not given) | 85 | 82 | 89 | 0.867 | 0.933 | – | – | – | – | – | – | –
CCOc1cc(-c2ccc(N3CCC(CN4CCN(C(=O)C5CC6(C5)CC(N5CCN(c7ccc8c(c7)CN(C7CCC(=O)NC7=O)C8=O)CC5)C6)CC4)(NC(=O)c4cc(F)ccc4F)CC3)nc2)c2c(C#N)cnn2c1 (stereo not given) | 81 | 84 | 100 | > 2 | 1.53 | – | – | – | – | – | – | –
CCOc1cc(-c2ccc(N3CCC(CN4CCN(C(=O)C5CC(N6CCC(c7ccc8c(c7)C(=O)N(C7CCC(=O)NC7=O)C8)CC6)C5)CC4)(NC(=O)c4cc(F)ccc4F)CC3)nc2)c2c(C#N)cnn2c1 (stereo not given) | – | – | – | 1.48 | > 2 | – | 4.3 | > 2 | 1 | 30 | 0.708 | 8.09
CCOc1cc(-c2ccc(N3CCC(CN4CCN(C(=O)CCN5CCC(c6ccc7c(c6)C(=O)N(C6CCC(=O)NC6=O)C7)CC5)CC4)(NC(=O)c4ncccc4F)CC3)nc2)c2c(C#N)cnn2c1 (stereo not given) | 100 | 79 | 97 | – | – | – | – | – | – | – | – | –
